Laboratory results taken from publication PMC7587960 (Molecules, 2020).
Converted amounts (≈) assume the structure as drawn. “Also recorded” adds a separate entry of the source. Where two headings read alike, the source gives them in different places.

Key:
[1] = biological target: IAV polymerase (PB1, PB2, PA, NP) (Influenza A virus, UniProt P03427+P03430+P15659); format: cell-based
[2] = system: influenza A virus (strain A/WSN/33 (H1N1)); test: microbe, parasite or virus in culture; settings: A549, 24 h, read-out: IC50 IAV (Strain WSN/33 (H1N1)), A549 cells
[3] = system: Na+/K+-ATPase; parameters: method as in PMID 30798081; settings: cited from earlier work
[4] = in vitro; settings: dog
Method: (§1) A549 and MDCK cells were seeded in 96-well plates and grown overnight. […] Next, 15 µL of sterile water or Triton X-100 10% (CytoSelect^TM LDH Cytotoxicity Assay Kit) were added to each well in DMEM or MEM, for 10 min, at room temperature. Supernatants were collected and stored at −80 °C until used. Supernatants (90 µL) were transferred to clean 96-well plates and 10 µL of LDH Reagent (CytoSelect^TM LDH Cytotoxicity Assay Kit) were added to each sample and incubated for 20 min. Quantification was performed using a spectrophotometer at 405 nm. The concentration of each sample that reduced cell viability by 50% was estimated as CC50.

[5] = in vitro; settings: human
Method: as §1

[6] = system: influenza A virus (strain A/WSN/33 (H1N1)); test: microbe, parasite or virus in culture; settings: MDCK, 24 h, read-out: IC50 IAV (Strain WSN/33 (H1N1)), MDCK cells
[7] = biological target: viral polymerase complex (PA, PB1, NP, Strep-PB2) (Influenza A virus, UniProt P03427+P03430+P15659); format: cell-based
[8] = system: influenza A virus (strain A/WSN/33 (H1N1)) RNA transcription; format: cell-based
[9] = system: influenza A virus (strain A/WSN/33 (H1N1))
[10] = system: influenza A virus (strain A/WSN/33 (H1N1)); settings: for IC50: read-out: IC50 IAV (Strain WSN/33 (H1N1)), A549 cells
[11] = system: influenza A virus (strain A/WSN/33 (H1N1)) proteins PB1, NP, M1, NS1; format: cell-based
[12] = system: influenza A virus (A/Panama/2007/1999 (H3N2))
[13] = system: human tumor-free lung tissue explants; test: Viability of human tumor-free lung explants (LDH release); settings: treated lung tissues, 48 h p.i.
[14] = system: IAV (strain A/PR/8/34); parameters: method as in PMID 21899996; settings: MDCK cells, cited from earlier work
[15] = system: influenza A virus (A/Panama/2007/1999 (H3N2)); parameters: method as in PMID 31826721; settings: pre-treatment for 1 h, human lung tissues, IAV A/Panama/2007/1999 (H3N2); cited from earlier work

SMILES | decrease of polymerase activity [1] | IC50 [2] [nM] | Na+/K+-ATPase inhibition [3] | CC50 [4] [nM] | CC50 [5] [nM] | IC50 [6] [nM] | viral polymerase complex assembly (PA, PB1, NP in complex precipitates) [7] | viral mRNA levels (NP segment 5, M1 segment 7) [8] | fold by which the IC50 of oleandrigenin-β-D-glucosyl (1→4)-β-D-digitalose is higher than that of the compound [9] [fold] | reduction of viral titers [10] [%] | IC50 [10] [nM] | early (NS1, NP, PB1) and late (M1) viral protein expression [11] | viral replication / viral titers [12] | tissue integrity / tissue toxicity (LDH release) [13] | further results
C[C@]12CC[C@H](NC(=O)CO)C[C@H]1CC[C@@H]1[C@@H]2CC[C@]2(C)[C@@H](C3=CC(=O)OC3)CC[C@]12O [C11, 3β-(hydroxyacetyl)amino-3-deoxydigitoxigenin] | approximately 40% | ~60 | inhibited | > 5000 | > 5000 | ~60 | interfered | decreased | 17 | > 50 | 62 | decreased | abolished viral replication; also recorded: below the detection limit | > 2 fold over control | reduction of polymerase activity [1]: no significant reduction; IC50 ([9]; read-out: IC50 IAV (Strain WSN/33 (H1N1)), MDCK cells): 66 ± 6 nM
COC1C(O)C(OC2CCC3(C)C(CCC4C3CCC3(C)C(C5=CC(=O)OC5)C(OC(C)=O)CC43O)C2)OC(C)C1OC1OC(CO)C(O)C(O)C1O [oleandrigenin-β-D-glucosyl (1→4)-β-D-digitalose] |  |  |  |  |  |  |  |  |  |  |  |  |  |  | IC50 ([14]; strain A/PR/8/34, converted from µg/mL, read-out: IC50, IAV titer reduction): 1140 nM; IC50, IAV titer reduction ([14]; strain A/PR/8/34): 0.86 µg/mL (≈ 1.14 µM)
C[C@]12CC[C@H](O)C[C@H]1CC[C@@H]1[C@@H]2CC[C@]2(C)[C@@H](C3=CC(=O)OC3)CC[C@]12O [Digitoxigenin, digitoxigenin, reference compound] |  | 70 ± 10 |  |  |  | 72 ± 5 |  |  |  | > 50 |  |  |  |  | CC50 at 24 h [4]: > 5000 nM; CC50 at 24 h [5]: > 5000 nM; SI (CC50/IC50), MDCK cells [9]: 88.052; SI (CC50/IC50), A549 cells [10]: 92.366
C[C@]12CC[C@H](NC(=O)CNCCO)C[C@H]1CC[C@@H]1[C@@H]2CC[C@]2(C)[C@@H](C3=CC(=O)OC3)CC[C@]12O [C10] | > 50% | ~60 | inhibited | > 5000 | > 5000 | ~60 | interfered | decreased | 19 | > 50 | 57 ± 2 | decreased | completely abrogated viral replication; also recorded: below the detection limit | did not reduce tissue integrity | reduction of viral titers [12]: 4 logs
CO/C1=C\C(C)=C\[C@@H](C)[C@@H](O)[C@@H](C)C/C(C)=C/C=C/[C@H](OC)[C@@H]([C@@H](C)[C@@H](O)[C@H](C)[C@@]2(O)C[C@@H](O)[C@H](C)[C@@H](C(C)C)O2)OC1=O [bafilomycin A] |  |  |  |  |  |  |  |  |  |  |  |  |  |  | IAV replication in lung tissues [15]: abolished IAV replication
